Experimental data: PMC2945410 (Journal of molecular biology, 2010)

Experiments:
E. coli YahA = biological target: T1, E. coli YahA (Escherichia coli, UniProt P21514); test: p-nitrophenol release, absorbance at […] nm; type: biochemical; conditions: 10 mM bis-pNPP, 50 mM HEPES pH 7.5, 2 mM MnCl2
T1 sequence (P21514 73-362): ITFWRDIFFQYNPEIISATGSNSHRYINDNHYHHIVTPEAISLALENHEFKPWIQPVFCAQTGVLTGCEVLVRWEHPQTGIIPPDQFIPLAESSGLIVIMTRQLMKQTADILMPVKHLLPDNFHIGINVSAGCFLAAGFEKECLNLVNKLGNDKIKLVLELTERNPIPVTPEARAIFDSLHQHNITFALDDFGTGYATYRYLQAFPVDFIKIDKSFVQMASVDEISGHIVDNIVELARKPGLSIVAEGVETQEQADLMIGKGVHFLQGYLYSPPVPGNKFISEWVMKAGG

TBD1660 = biological target: T2, TBD1660 (Thiobacillus denitrificans, UniProt Q3SIB5); test: p-nitrophenol release, absorbance at […] nm; type: biochemical; conditions: 10 mM bis-pNPP, 50 mM HEPES pH 7.5, 2 mM MnCl2
T2 sequence (Q3SIB5 443-698): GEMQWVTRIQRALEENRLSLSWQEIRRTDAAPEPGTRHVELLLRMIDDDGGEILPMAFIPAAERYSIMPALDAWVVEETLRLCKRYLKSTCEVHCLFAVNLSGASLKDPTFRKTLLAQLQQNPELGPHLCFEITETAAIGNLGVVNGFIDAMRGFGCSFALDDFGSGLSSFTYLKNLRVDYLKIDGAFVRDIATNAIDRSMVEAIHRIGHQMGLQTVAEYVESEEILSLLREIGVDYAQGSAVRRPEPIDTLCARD

SMILES: O=[N+]([O-])c1ccc(OP(=O)(O)Oc2ccc([N+](=O)[O-])cc2)cc1 [bis-pNPP, bis-p-nitrophenyl phosphate]
- p-nitrophenol release, absorbance at 410 nm (E. coli YahA): E. coli YahA and T. denitrificans TBD1660 showing the highest activities
- p-nitrophenol release, absorbance at 410 nm (TBD1660): E. coli YahA and T. denitrificans TBD1660 showing the highest activities
